Measurements as given in patent publication US9469653B2, “Pharmaceutical compositions for preventing or treating degenerative brain disease and method of screening the same” (KOREA INSTITUTE OF SCIENCE AND TECHNOLOGY, priority 2011, dated 2016).

Biological target: T1, human MAO-B enzyme (Homo sapiens (Human), UniProt P27338)
Assay: Screening of MAO-B activity inhibition (Amplex Red monoamine oxidase assay kit, benzylamine substrate)
Format: biochemical
Conditions: not given

T1 sequence (P27338 whole entry): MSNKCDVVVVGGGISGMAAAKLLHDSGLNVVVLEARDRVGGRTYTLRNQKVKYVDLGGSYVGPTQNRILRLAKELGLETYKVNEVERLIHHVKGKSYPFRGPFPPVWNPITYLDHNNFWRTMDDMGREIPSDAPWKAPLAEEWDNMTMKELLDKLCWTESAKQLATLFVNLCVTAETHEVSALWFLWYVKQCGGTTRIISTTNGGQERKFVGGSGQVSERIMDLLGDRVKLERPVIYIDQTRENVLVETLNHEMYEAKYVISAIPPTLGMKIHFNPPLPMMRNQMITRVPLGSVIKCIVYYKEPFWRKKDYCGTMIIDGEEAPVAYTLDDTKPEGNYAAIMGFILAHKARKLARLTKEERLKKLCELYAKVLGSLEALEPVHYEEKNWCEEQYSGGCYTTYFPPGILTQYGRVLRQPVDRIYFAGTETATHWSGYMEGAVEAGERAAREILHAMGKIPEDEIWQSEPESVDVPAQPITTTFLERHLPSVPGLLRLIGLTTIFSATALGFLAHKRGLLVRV

| Compound | IC50 [µM] |
| --- | --- |
| 2-fluorophenyl-5-(pyrrolidine-1-yl)oxazolo[5,4-b]pyridine [Example 5-34] | 8.7 |

Same assay, conditions: activity assay at 0.001, 0.01, 0.1, 1 and 10 uM

| Compound | IC50 [µM] |
| --- | --- |
| c1ccc(-c2nc3ccc(N4CCCC4)nc3o2)cc1 [Example 5-30, 2-phenyl-5-(pyrrolidine-1-yl)oxazolo[5,4-b]pyridine] | 0.41 |
| c1ccc(-c2nc3ccc(N4CCCC4)nc3s2)cc1 [Example 5-31, 2-phenyl-5-(pyrrolidine-1-yl)thiazolo[5,4-b]pyridine] | 7.3 |
| Clc1ccccc1-c1nc2ccc(N3CCCC3)nc2o1 [Example 5-32, 2-chlorophenyl-5-(pyrrolidine-1-yl)oxazolo[5,4-b]pyridine] | 112 |
| c1ccc(-c2nc3ccc(N4CCCCC4)nc3o2)cc1 [Example 5-37, 2-phenyl-5-(piperidine-1-yl)oxazolo[5,4-b]pyridine] | 2 |
| c1ccc(-c2nc3ccc(N4CCCCC4)nc3s2)cc1 [Example 5-38, 2-phenyl-5-(piperidine-1-yl)thiazolo[5,4-b]pyridine] | 8.3 |

Biological target: T1, human MAO-B enzyme
Assay: as above
Format: biochemical
Conditions: 10 uM of the synthesized compound, pargyline-corrected
Method: A stock solution was prepared using a human MAO-B enzyme (purchased from Aldrich) and a Amplex® Red monoamine oxidase assay kit according to a preparation manual. The kit includes a 5× reaction buffer, an Amplex® red reagent (1 mg), HRP, DMSO, H2O2, p-tyramine (substrate of MAO-A, B), benzylamine (substrate of MAO-B), clorgiline (inhibitor of MAO-A), and pargyline (inhibitor of MAO-B). Among these reagents in the kit, benzylamine was used as a substrate for MAO-B, and pargyline was used as an MAO-B inhibitor. A solution as overall substrates was prepared as follows. 200 ul of a solution of 1 mg of Amplex® red sufficiently dissolved in 200 ul of DMSO, 100 ul of a mixed solution of HRP and 1 ml of a 1× buffer, 200 ul of a solution of benzylamine dissolved in 1.2 ml of dH2O were added to 9.5 ml of a 1× buffer to reach a total volume of 10 mL, which is sufficient for 100 wells. 0.5 ul of a mixture of MAO-B inhibitor pargyline and 1 ml of dH2O was put into each well. First, the activity of MAO-B was determined using 10 uM of the synthesized compound.
96 wells were injected with positive and negative types, and the wile type. The positive type included only substrate and hydrogen peroxide, and the negative type included only substrate. For the wild type, corresponding wells were injected with the enzyme, substrate, and MAO-B inhibitor, but with no synthesized compound. Afterward, 2 ul of the synthesized compound (1 mM) was added into each well, and the human MAO-B enzyme was put only into the 1st row of wells. 0.5 ug of the human MAO-B was put into each well along with 100 ul of a 1× buffer. The human MAO-B enzyme was put into the 2nd row of the wells along with 0.5 ul of a pargyline, the MAO-B inhibitor. To reduce an experimental error for accuracy, the test was repeated three times for each compound. After 30 minutes, 100 ul of the substrate solution was added into each well in a darkroom. The test was performed in the darkroom due to light sensitivity of the Amplex® reagent. Finally, a total volume of the reaction solution per well reached 200 ul. After about 2 to 3 hours, chromophoric degrees of the samples were measured. A variation in data values for the 1st and 2nd rows of the wells indicates the pure reaction activity of the MAO-B enzyme with the substrate. Using the samples with the synthesized compound the remaining activity of MAO-B after inhibited by the synthesized compound may be determined. This is because the activities of the other enzymes excluding the MAO-B enzyme may be excluded through this method. Compounds with high inhibitory activity at a concentration of 10 uM were screened from among the synthesized compounds at a compound concentration of 10 uM.

| Compound | Remaining activity of MAO-B (%) |
| --- | --- |
| 2-fluorophenyl-5-(pyrrolidine-1-yl)oxazolo[5,4-b]pyridine [Example 5-34] | 8.4 |
| c1ccc(-c2nc3ccc(N4CCCC4)nc3o2)cc1 [Example 5-30, 2-phenyl-5-(pyrrolidine-1-yl)oxazolo[5,4-b]pyridine] | 2.31 |
| c1ccc(-c2nc3ccc(N4CCCC4)nc3s2)cc1 [Example 5-31, 2-phenyl-5-(pyrrolidine-1-yl)thiazolo[5,4-b]pyridine] | 1.7 |
| Clc1ccccc1-c1nc2ccc(N3CCCC3)nc2o1 [Example 5-32, 2-chlorophenyl-5-(pyrrolidine-1-yl)oxazolo[5,4-b]pyridine] | 7.7 |
| Clc1cccc(-c2nc3ccc(N4CCCC4)nc3o2)c1 [Example 5-33, 2-chlorophenyl-5-(pyrrolidine-1-yl)oxazolo[5,4-b]pyridine] | 14.2 |
| Clc1ccc(-c2nc3ccc(N4CCCC4)nc3o2)cc1 [Example 5-35, 2-chlorophenyl-5-(pyrrolidine-1-yl)oxazolo[5,4-b]pyridine] | 42.4 |
| Brc1ccc(-c2nc3ccc(N4CCCC4)nc3o2)cc1 [Example 5-36] | 33.5 |
| c1ccc(-c2nc3ccc(N4CCCCC4)nc3o2)cc1 [Example 5-37, 2-phenyl-5-(piperidine-1-yl)oxazolo[5,4-b]pyridine] | 3.09 |
| c1ccc(-c2nc3ccc(N4CCCCC4)nc3s2)cc1 [Example 5-38, 2-phenyl-5-(piperidine-1-yl)thiazolo[5,4-b]pyridine] | 1.8 |
| Clc1cccc(-c2nc3ccc(N4CCCCC4)nc3o2)c1 [Example 5-41, 2-chlorophenyl-5-(piperidine-1-yl)oxazolo[5,4-b]pyridine] | 17 |
| Cc1cccc(-c2nc3ccc(N4CCCCC4)nc3o2)c1 [Example 5-42, 5-(piperidine-1-yl)-2-m-tolyloxazolo[5,4-b]pyridine] | −7.8 |
| O=[N+]([O-])c1cccc(-c2nc3ccc(N4CCCCC4)nc3o2)c1 [Example 5-43] | −21.5 |
| N#Cc1cccc(-c2nc3ccc(N4CCCCC4)nc3o2)c1 [Example 5-44, 3-(5-(piperidine-1-yl)oxazolo[5,4-b]pyridine-2-yl)benzonitrile] | 10.1 |
| Clc1ccc(-c2nc3ccc(N4CCCCC4)nc3o2)cc1 [Example 5-46] | 56.0 |
| Cc1ccc(-c2nc3ccc(N4CCCCC4)nc3o2)cc1 [Example 5-48, 5-(piperidine-1-yl)-2-p-tolyloxazolo[5,4-b]pyridine] | 46.2 |
| N#Cc1ccc(-c2nc3ccc(N4CCCCC4)nc3o2)cc1 [Example 5-50, 4-(5-(piperidine-1-yl)oxazolo[5,4-b]pyridine-2-yl)benzonitrile] | 71.2 |
| Clc1cccc(-c2nc3ccc(NC4CCCC4)nc3o2)c1 [Example 5-51, 2-(3-chlorophenyl)-N-cyclopentyloxazolo[5,4-b]pyridine-5-amine] | 37.2 |
| c1ccc(-c2nc3ccc(NC4CCCCC4)nc3s2)cc1 [Example 5-52, N-cyclohexyl-2-phenylthiazolo[5,4-b]pyridine-5-amine] | 43 |
| Clc1cccc(-c2nc3ccc(NC4CCCCC4)nc3o2)c1 [Example 5-53, 2-(3-chlorophenyl)-N-cyclohexyloxazolo[5,4-b]pyridine-5-amine] | 39.3 |
| c1ccc(-c2nc3ccc(N4CCCCCC4)nc3o2)cc1 [Example 5-54, 5-(azepane-1-yl)-2-phenyloxazolo[5,4-b]pyridine] | 57.5 |

| Compound | Remaining activity of MAO-B (%) |
| --- | --- |
| c1ccc(-c2nc3ccc(N4CCCCCC4)nc3s2)cc1 [Example 5-55, 5-(azepane-1-yl)-2-phenylthiazolo[5,4-b]pyridine] | −1.8 |
| Fc1ccc(-c2nc3ccc(N4CCCCCC4)nc3o2)cc1 [Example 5-56, 5-(azepane-1-yl)-2-(4-fluorophenyl)oxazolo[5,4-b]pyridine] | 61.4 |
| c1ccc(CNc2ccc3nc(-c4ccccc4)oc3n2)cc1 [Example 5-57, N-benzyl-2-phenyloxazolo[5,4-b]pyridine-5-amine] | 63.1 |
| Fc1cccc(-c2nc3ccc(NCc4ccccc4)nc3o2)c1 [Example 5-59, N-benzyl-2-(3-fluorophenyl)oxazolo[5,4-b]pyridine-5-amine] | 51.9 |
| Clc1cccc(-c2nc3ccc(NCc4ccccc4)nc3o2)c1 [Example 5-60, N-benzyl-2-(3-chlorophenyl)oxazolo[5,4-b]pyridine-5-amine] | 55.4 |
| Clc1ccc(-c2nc3ccc(NCc4ccccc4)nc3o2)cc1 [Example 5-61, N-benzyl-2-(4-chlorophenyl)oxazolo[5,4-b]pyridine-5-amine] | 46.4 |
| c1ccc(-c2nc3ccc(NCCN4CCOCC4)nc3s2)cc1 [Example 5-62, N-(2-morpholinoethyl)-2-phenylthiazolo[5,4-b]pyridine-5-amine] | 42.7 |
| CN(Cc1ccccc1)c1ccc2nc(-c3ccccc3)oc2n1 [Example 5-63, N-benzyl-N-methyl-2-phenyloxazolo[5,4-b]pyridine-5-amine] | 53.2 |
| CN(Cc1ccccc1)c1ccc2nc(-c3ccccc3)sc2n1 [Example 5-64, N-benzyl-N-methyl-2-phenylthiazole[5,4-b]pyridine-5-amine] | 47.8 |
| CN(Cc1ccccc1)c1ccc2nc(-c3ccccc3Cl)oc2n1 [Example 5-65, N-benzyl-2-(2-chlorophenyl)-N-methyloxazolo[5,4-b]pyridine-5-amine] | 84.1 |
| CN(Cc1ccccc1)c1ccc2nc(-c3cccc(F)c3)oc2n1 [Example 5-66, N-benzyl-2-(3-fluorophenyl)-N-methyloxazolo[5,4-b]pyridine-5-amine] | 43 |
| Cc1ccc(-c2nc3ccc(N(C)Cc4ccccc4)nc3o2)cc1 [Example 5-69, N-benzyl-N-methyl-2-p-tolyloxazolo[5,4-b]pyridine-5-amine] | 84.1 |
| COc1ccc(-c2nc3ccc(N(C)Cc4ccccc4)nc3o2)cc1 [Example 5-70, N-benzyl-2-(4-methoxyphenyl)-N-methyloxazolo[5,4-b]pyridine-5-amine] | 52.4 |
| CN(Cc1ccccc1)c1ccc2nc(-c3ccc([N+](=O)[O-])cc3)oc2n1 [Example 5-71, N-benzyl-N-methyl-2-(4-nitrophenyl)oxazolo[5,4-b]pyridine-5-amine] | 101.2 |
| CN(Cc1ccccc1)c1ccc2nc(-c3ccc(C#N)cc3)oc2n1 [Example 5-72] | 108.8 |
| CNc1ccc2nc(-c3ccccc3)oc2n1 [Example 5-73, N-methyl-2-phenyloxazolo[5,4-b]pyridine-5-amine] | 51 |
| CNc1ccc2nc(-c3ccc(C)cc3)oc2n1 [Example 5-78, N-methyl-2-p-tolyloxazolo[5,4-b]pyridine-5-amine] | 45.8 |
| CNc1ccc2nc(-c3ccc(OC)cc3)oc2n1 [Example 5-79, 2-(4-methoxyphenyl)-N-methyloxazolo[5,4-b]pyridine-5-amine] | 84.5 |
| c1ccc(-c2nc3ccc(NC4CCCCC4)nc3o2)cc1 [Example 5-80, N-cyclohexyl-2-phenyloxazolo[5,6-b]pyridine-5-amine] | 11.1 |
